In patent US20230157998A1, “Methods of Inhibiting SARS-CoV-2 Replication and Treating Corona Virus Disease 2019” (Pfizer Inc., priority 2020, published 2023):
Converted amounts (≈) assume the structure as drawn. Where two headings read alike, the source gives them in different places.

Experiments:
[1] = molecular target: NL63-CoV 3CLpro (Human coronavirus NL63, UniProt P0C6X5); assay: FRET protease activity assay; format: biochemical; conditions: Alpha-CoV; [E]T 170 ± 4 nM
[2] = molecular target: HKU1-CoV 3CLpro (Human coronavirus HKU1, UniProt P0C6X2); assay: FRET protease activity assay; format: biochemical; conditions: Beta-CoV; [E]T 57 ± 1 nM
[3] = molecular target: OC43-CoV 3CLpro (Human coronavirus OC43, UniProt P0C6X6); assay: FRET protease activity assay; format: biochemical; conditions: Beta-CoV; [E]T 52 ± 1 nM
[4] = molecular target: Human Elastase (Homo sapiens, UniProt P08246); assay: Protease panel; format: biochemical
[5] = tested on: SARS-CoV-2 Washington strain 1; assay: Cytopathic effect (CPE) assay in VeroE6-enACE2 cells; format: cell-based
[6] = tested on: HCOV-229E; assay: Antiviral activity in MRC-5 cells; format: cell-based; conditions: lung cell lines (A549-ACE2 and MRC5)
[7] = tested on: SARS-CoV-2 USA-WA1/2020; assay: In vitro drug efficacy in A549+ACE2 cells; format: cell-based
[8] = tested on: SARS-CoV-2 USA-NYU-VC-003/2020; assay: In vitro drug efficacy in A549+ACE2 cells; format: cell-based; conditions: Severe acute respiratory syndrome coronavirus 2, 24 hours post infection
[9] = tested on: SARS-CoV-2 USA-WA1/2020; assay: microbe, parasite or virus in culture; format: cell-based
[10] = tested on: SARS-CoV-2; assay: Efficacious target concentration and human dose projection; conditions: across a range of in vitro antiviral assays
[11] = Ethanol […] v/v, 2 mg/mL at preparation
[12] = ~1 mg/mL, 5% v/v co-solvent, pH 4 or 5, with or without 15 mg/mL SBE-β-CD, up to 7 days, all samples
[13] = tested on: VeroE6-enACE2 cells; conditions: African green monkey
[14] = tested on: SARS-CoV-2 (USA_WA1/2020); conditions: for synergy score: isobologram level 0.9
[15] = tested on: cytochrome P450 enzymes; conditions: human, microsomes
[16] = tested on: CYP1A2, 2B6, 2C8, 2C9, 2C19, 2D6, and 3A; conditions: read-out: IC50, reversible inhibition of CYP enzymes; probe substrates in pooled HLM
[17] = physchem; conditions: 4 °C, thermodynamic from solid
[18] = physchem; conditions: 25 °C, pH 5, aqueous buffer, thermodynamic from solid, Saturated solubility for PF-00835231 at 25° C.
[19] = physchem; conditions: 25 °C, pH 5, aqueous buffer, thermodynamic from solid, PF-00835321 Saturated Solubility
[20] = physchem; conditions: 25 °C, organic solvent or mixture, thermodynamic from solid
[21] = physchem; conditions: 25 °C, aqueous with cosolvent or surfactant or cyclodextrin, thermodynamic from solid
[22] = physchem; conditions: organic solvent or mixture, thermodynamic from solid
[23] = in vitro; conditions: human
[24] = molecular target: SARS-CoV-2 3CLpro (Severe acute respiratory syndrome coronavirus 2, UniProt P0DTD1); assay: Thermal-shift assay; conditions: n=8; 55.9+/−[…] C. (n=16) without compound
[25] = Freeze-thaw experiment; conditions: solutions of the order-of-addition experiment, −20° C. freezer ~24 hours, thawed at room temperature
[26] = Cytotoxicity in MRC-5 cells; conditions: human
[27] = tested on: MRC-5 cells; assay: Cytotoxicity in MRC-5 cells; conditions: read-out: CC50 μM GeoMean; MRC-5, Efflux Inhibitor 0.5 μM
[28] = tested on: SARS-CoV-2; assay: microbe, parasite or virus in culture
[29] = Saturated solubility in CD/water mixtures with polymeric excipients (F6); conditions: 25° C., pH 5, HP-β-CD 15 mg/mL

Human Elastase, sequence (P08246 30-247): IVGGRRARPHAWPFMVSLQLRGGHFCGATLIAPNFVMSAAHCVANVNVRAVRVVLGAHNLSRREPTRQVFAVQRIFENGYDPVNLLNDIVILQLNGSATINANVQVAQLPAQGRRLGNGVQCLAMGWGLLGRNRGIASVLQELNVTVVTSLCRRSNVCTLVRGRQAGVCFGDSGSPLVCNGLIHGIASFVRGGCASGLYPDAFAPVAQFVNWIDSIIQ
NL63-CoV 3CLpro, sequence (P0C6X5 2940-3242): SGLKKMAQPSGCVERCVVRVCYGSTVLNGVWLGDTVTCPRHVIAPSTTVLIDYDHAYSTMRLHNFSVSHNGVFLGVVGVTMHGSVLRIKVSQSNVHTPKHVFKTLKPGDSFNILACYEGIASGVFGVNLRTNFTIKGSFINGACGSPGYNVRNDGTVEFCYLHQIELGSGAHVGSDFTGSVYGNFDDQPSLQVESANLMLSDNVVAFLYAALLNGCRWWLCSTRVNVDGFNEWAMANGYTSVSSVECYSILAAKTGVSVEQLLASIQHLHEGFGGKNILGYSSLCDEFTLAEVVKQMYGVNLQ
OC43-CoV 3CLpro, sequence (P0C6X6 3247-3549): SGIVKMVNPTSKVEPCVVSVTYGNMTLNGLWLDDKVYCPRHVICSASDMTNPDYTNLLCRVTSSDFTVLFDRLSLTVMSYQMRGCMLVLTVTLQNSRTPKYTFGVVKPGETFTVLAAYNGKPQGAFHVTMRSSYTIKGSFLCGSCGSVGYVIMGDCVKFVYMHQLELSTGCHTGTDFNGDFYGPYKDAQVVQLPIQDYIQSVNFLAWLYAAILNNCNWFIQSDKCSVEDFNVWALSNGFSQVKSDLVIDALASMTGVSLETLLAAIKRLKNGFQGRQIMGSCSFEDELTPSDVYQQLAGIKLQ
HKU1-CoV 3CLpro, sequence (P0C6X2 3335-3637): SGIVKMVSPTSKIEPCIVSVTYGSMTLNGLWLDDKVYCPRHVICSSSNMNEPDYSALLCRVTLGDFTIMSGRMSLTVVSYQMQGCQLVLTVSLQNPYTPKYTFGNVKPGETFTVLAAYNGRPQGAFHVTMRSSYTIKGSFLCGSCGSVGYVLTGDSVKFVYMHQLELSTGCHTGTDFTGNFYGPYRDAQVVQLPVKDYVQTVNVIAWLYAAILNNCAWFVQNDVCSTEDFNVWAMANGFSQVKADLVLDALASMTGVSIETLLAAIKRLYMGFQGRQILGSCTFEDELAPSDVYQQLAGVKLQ

COc1cccc2[nH]c(C(=O)N[C@@H](CC(C)C)C(=O)N[C@@H](C[C@@H]3CCNC3=O)C(=O)CO)cc12 [PF-00835231]
Ki [1]: 0.8 ± 0.5 nM
Ki [2]: 0.9 ± 0.2 nM
Ki [3]: 0.5 ± 0.1 nM
IC50 [4]: > 33300 nM
EC50 ([5]; Severe acute respiratory syndrome coronavirus 2, VeroE6-enACE2 cells, in the presence of the P-gp inhibitor, quoted for the EC50/EC90 difference, read-out: EC50): 0.48 µM
EC90 ([5]; Severe acute respiratory syndrome coronavirus 2, Vero-cell lines, P-gp inhibitor added): 480 to 1600 nM
difference between EC50 and EC90 ([5]; both Vero cell types): 2-3 fold
EC50 ([5]; read-out: EC50 μM GeoMean): 0.23 µM
difference in antiviral potency in the presence and absence of P-gp inhibitor [6]: no significant difference in antiviral potency
EC50 ([7]; Severe acute respiratory syndrome coronavirus 2, A549-ACE2, 24 h): 221 nM
EC90 ([7]; Severe acute respiratory syndrome coronavirus 2, A549-ACE2, 24 h, read-out: EC90): 734 nM
EC50 ([7]; Severe acute respiratory syndrome coronavirus 2, A549-ACE2, 48 h): 158 nM
EC90 ([7]; Severe acute respiratory syndrome coronavirus 2, A549-ACE2, 48 h, read-out: EC90): 439 nM
EC90 ([7]; Severe acute respiratory syndrome coronavirus 2, A549-ACE2, dose response assay in human lung carcinoma cells, read-out: average EC90): 440 nM
EC50 [8]: 184 nM
EC90 [8]: 591 nM
SARS-CoV-2 viral infectious titers in apical washes ([9]; 10 μM doses): viral titers below the limit of 366 detection at most time points
SARS-CoV-2 viral infectious titers in apical washes ([9]; 0.025, 0.5 or 10 μM in basolateral chamber, washes at 12-hour increments): potently inhibit SARS-CoV-2 titers in a dose-dependent manner
EC90 ([9]; Severe acute respiratory syndrome coronavirus 2, primary human airway epithelial model, antiviral time course, preliminary data, read-out: unbound EC90): < 500 nM
Hill coefficient (m), slope of the dose response curve [10]: 3
PF-00835231 Assay ([11]; HP-β-CD 0 mg/mL, order: PF-00835231, Ethanol, Buffer): 0.4 mg/mL
PF-00835231 Assay ([11]; HP-β-CD 15 mg/mL, order: PF-00835231, Ethanol, HP-β-CD with buffer): 1.9 mg/mL
PF-00835231 Assay ([11]; HP-β-CD 15 mg/mL, order: PF-00835231, HP-β-CD with buffer, Ethanol): 0.4 mg/mL
decrease in chromatographic purity at 22° C. [12]: less than 0.5%
CC50 [13]: > 100000 nM
cytotoxicity of the combinations [14]: no significant cytotoxicity
synergy score ([14]; combination with azithromycin): 3.76
synergy score ([14]; combination with remdesivir): 5.1
unbound CIint [15]: 14 µL/min/mg
IC50 [16]: > 200000 nM
solubility at 48 h ([17]; pH 3, aqueous buffer): 100 µg/mL (≈ 212 µM)
solubility at 48 h ([17]; pH 5, aqueous buffer): 100 µg/mL (≈ 212 µM)
solubility at 48 h ([17]; pH 7, aqueous buffer): 100 µg/mL (≈ 212 µM)
solubility at 25 h [18]: 200 µg/mL (≈ 423 µM)
solubility at 48 h [19]: 200 µg/mL (≈ 423 µM)
solubility at 48 h [20]: > 45000 µg/mL
solubility [21]: 1700 µg/mL (≈ 3600 µM)
solubility at 48 h [21]: 1900 µg/mL (≈ 4020 µM)
solubility at 72 h [21]: 2000 µg/mL (≈ 4230 µM)
solubility [22]: ≥ 200000 µg/mL
CC50 [23]: > 10000 nM
melting temperature (Tm) of SARS-CoV-2 3CLpro with compound bound [24]: 70.5+/−0.12 °C
visual inspection after freezing and thawing [25]: No particulates were observed in any sample
CC50 [26]: > 100000 nM
CC50 [27]: > 100 µM
EC90 ([28]; Severe acute respiratory syndrome coronavirus 2, HeLa-ACE2, HELA-ACE2, remdesivir concentration 0): 433 nM
EC90 ([28]; Severe acute respiratory syndrome coronavirus 2, HeLa-ACE2, HELA-ACE2, remdesivir concentration 48 (nm in FIG. 5A legend)): 123 nM
EC90 ([28]; Severe acute respiratory syndrome coronavirus 2, HeLa-ACE2, HELA-ACE2, remdesivir concentration 95 (nm in FIG. 5A legend)): 54.5 nM
EC90 ([28]; Severe acute respiratory syndrome coronavirus 2, HeLa-ACE2, HELA-ACE2, remdesivir concentration 190 (nm in FIG. 5A legend)): < 0.78 nM
PF-00835231 Assay ([29]; HPMC 1 mg/mL): 0.4 mg/mL
PF-00835231 Assay ([29]; PEG400 […]): 0.4 mg/mL
PF-00835231 Assay ([29]; PEG3350 […]): 0.4 mg/mL
PF-00835231 Assay ([29]; PVP […]): 0.4 mg/mL
PF-00835231 Assay ([29]; no polymeric excipient): 0.4 mg/mL
